Results taken from PMC3116189, “Novel Natural Inhibitors of CYP1A2 Identified by in Silico and in Vitro Screening” (International Journal of Molecular Sciences, 2011).
Where two headings read alike, the source gives them in different places.

Molecular target: T1, CYP1A2 (Homo sapiens, UniProt P05177)
T1 sequence (P05177 1-516): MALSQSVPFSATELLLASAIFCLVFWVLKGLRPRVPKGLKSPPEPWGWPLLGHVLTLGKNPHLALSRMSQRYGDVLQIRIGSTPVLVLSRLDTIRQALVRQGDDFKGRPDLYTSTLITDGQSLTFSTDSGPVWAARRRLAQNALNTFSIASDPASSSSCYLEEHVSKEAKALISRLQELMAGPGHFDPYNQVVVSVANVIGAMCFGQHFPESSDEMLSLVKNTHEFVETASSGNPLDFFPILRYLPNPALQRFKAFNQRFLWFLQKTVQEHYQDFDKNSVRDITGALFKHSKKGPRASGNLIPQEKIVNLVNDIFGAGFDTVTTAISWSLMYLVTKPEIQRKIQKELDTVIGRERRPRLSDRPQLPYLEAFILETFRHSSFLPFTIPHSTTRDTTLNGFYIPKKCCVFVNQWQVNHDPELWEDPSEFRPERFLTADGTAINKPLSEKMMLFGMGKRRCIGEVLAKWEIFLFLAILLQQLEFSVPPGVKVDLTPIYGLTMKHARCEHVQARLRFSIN
Assay: in vitro
Assay type: biochemical

[1] = human, recombinant human CYP1A2, pH 7.4, probe phenacetin (25 μM), O-deethylation to acetaminophen, 1 μM active ingredient, Rh CYP1A2-mediated phenacetin O-deethylation, test dataset of 202 herb ingredients, read-out: % of Control Indication Activity (Mean)
[2] = human, recombinant enzyme, pH 7.4
[3] = 1 μM active ingredient, Rh CYP1A2-mediated phenacetin O-deethylation, test dataset of 202 herb ingredients
[4] = recombinant enzyme, pH 7.4, 1 μM active ingredient, Rh CYP1A2-mediated phenacetin O-deethylation, test dataset of 202 herb ingredients, read-out: % of Control Indication Activity (Mean)
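Further: recombinant CYP1A2 incubated for 1 h at 37 °C, with the reaction started by an NADPH-generating system.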

Experimental: A total of 18 candidate compounds selected by pharmacophore and docking were examined for their potential to inhibit rhCYP1A2 phenacetin O-deethylation activity at a test concentration of 1 μM.
The basic incubation medium contained 100 mM potassium phosphate buffer (PH 7.4), 50 pmol recombinant human CYP1A2, 25 μM phenacetin and 1 μM active ingredients. The final incubation volume was 200 μL. After 5 min pre-incubation at 37 °C, the reaction was initiated by the addition of NADPH-generating system (5 mM MgCl2, 10 mM glucose 6-phosphates, 1 mM NADPH, and 2.5 U per mL glucose 6-phosphate dehydrogenase). Incubations were performed in a 37 °C shaking water bath for 1 h. Reactions were stopped by adding 0.4 mL of ice-cold acetonitrile containing 0.2 mg/L tinidazole (IS). […] The column was maintained at 35 °C and the injection volume was 10 μL.

COc1cc2c(cc1OC)[C@@H]1Cc3ccc(OC)c(OC)c3CN1CC2 [Tetrahydropalmatine]
activity at 1 h, 1 μM [1]: > 90%

CC(C)=CCC[C@](C)(O[C@@H]1O[C@H](CO[C@@H]2O[C@H](CO)[C@@H](O)[C@H](O)[C@H]2O)[C@@H](O)[C@H](O)[C@H]1O)[C@H]1CC[C@]2(C)[C@@H]1[C@H](O)C[C@@H]1[C@@]3(C)CC[C@H](O[C@@H]4O[C@H](CO)[C@@H](O)[C@H](O)[C@H]4O[C@@H]4O[C@H](CO)[C@@H](O)[C@H](O)[C@H]4O)C(C)(C)[C@@H]3CC[C@]12C [Ginsenoside Rb1]
activity at 1 h, 1 μM [1]: > 90%

C[C@H]1O[C@@H](O[C@H]2CC[C@@]3(C)[C@@H](CC[C@]4(C)[C@@H]3C=C[C@]35OC[C@@]6(CCC(C)(C)C[C@H]63)[C@@H](O)C[C@]54C)[C@]2(C)CO)[C@H](O)[C@@H](O[C@@H]2O[C@H](CO)[C@@H](O)[C@H](O)[C@H]2O)[C@H]1O [Saikosaponin A]
activity at 1 h, 1 μM [2]: > 90%

O=c1cc(-c2ccc(O)cc2)oc2c([C@@H]3O[C@H](CO)[C@@H](O)[C@H](O)[C@H]3O)c(O)cc(O)c12 [Vitexin]
activity at 1 h, 1 μM [1]: > 90%

C/C=C(/C)C(=O)O[C@H]1[C@@H](OC(C)=O)c2c(ccc3ccc(=O)oc23)OC1(C)C [Praeruptorin A]
% of Control Indication Activity (Mean) [3]: > 90%

CCN1C[C@]2(COC)[C@H](O)C[C@H](OC)[C@@]34[C@@H]5C[C@@]6(O)[C@H](OC(=O)c7ccccc7)[C@@H]5[C@@](OC(C)=O)([C@@H]([C@H](OC)[C@H]23)[C@@H]14)[C@@H](O)[C@@H]6OC [Aconitine]
activity at 1 h, 1 μM [4]: > 90%

COc1ccc([C@@H]2CC(=O)c3c(O)cc(O[C@@H]4O[C@H](CO[C@@H]5O[C@@H](C)[C@H](O)[C@@H](O)[C@H]5O)[C@@H](O)[C@H](O)[C@H]4O)cc3O2)cc1O [Hesperidin]
% of Control Indication Activity (Mean) (recombinant enzyme): > 90

COC(=O)c1c2c(c3ccccc3c1O)OC(C)(C)C=C2 [Mollugin]
activity at 1 h, 1 μM [2]: > 90%

Cc1ccc(C(C)C)cc1O [Carvacrol]
activity at 1 h, 1 μM [1]: > 90%

CCCCCCCCCC(C)=O [Methyl nonylketone]
activity [4]: > 90%

C=CCc1ccc(O)c(-c2cc(CC=C)ccc2O)c1 [Magnolol]
activity [4]: > 90%

COc1cc2ccc(=O)oc2cc1O [Scopoletin]
activity at 1 h, 1 μM [1]: > 90%

Salvianolic acid B
% of Control Indication Activity (Mean) [3]: > 90%

CC(C)=CCC[C@](C)(O[C@@H]1O[C@H](CO)[C@@H](O)[C@H](O)[C@H]1O)[C@H]1CC[C@]2(C)[C@@H]1[C@H](O)C[C@@H]1[C@@]3(C)CC[C@H](O)C(C)(C)[C@@H]3[C@@H](O[C@@H]3O[C@H](CO)[C@@H](O)[C@H](O)[C@H]3O[C@@H]3OC[C@@H](O)[C@H](O)[C@H]3O)C[C@]12C [Notoginsenoside R1]
% of Control Indication Activity (Mean) [3]: > 90%
